Data reported in PubChem BioAssay (NCI).
Where “and” joins values, the source holds several entries; their conditions need not be identical. Equal values may be shown once.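 A five-concentration, 48-hour dose response in 96-well plates underlies each endpoint, interpolated linearly between surrounding concentrations. GI50 is the concentration that inhibits growth by half. Definition used: TGI = concentration required for complete inhibition of growth.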

Assays:
Assay in all cases: NCI-60 cell line screen, 48 h
DU-145 prostate = system: DU-145 prostate
HCT-15 colon = system: HCT-15 colon
MDA-MB-231 breast = system: MDA-MB-231 breast
NCI-H226 lung = system: NCI-H226 lung
MALME-3M melanoma = system: MALME-3M melanoma
T-47D breast = system: T-47D breast
HT29 colon = system: HT29 colon
UO-31 renal = system: UO-31 renal
OVCAR-3 ovarian = system: OVCAR-3 ovarian
ACHN renal = system: ACHN renal

Row | Structure (SMILES) | GI50 (DU-145 prostate) | TGI (DU-145 prostate) | GI50 (HCT-15 colon) | TGI (HCT-15 colon) | GI50 (MDA-MB-231 breast) | TGI (MDA-MB-231 breast) | GI50 (NCI-H226 lung) | TGI (NCI-H226 lung) | GI50 (MALME-3M melanoma) | TGI (MALME-3M melanoma) | GI50 (T-47D breast) | TGI (T-47D breast) | GI50 (HT29 colon) | TGI (HT29 colon) | GI50 (UO-31 renal) | TGI (UO-31 renal) | GI50 (OVCAR-3 ovarian) | TGI (OVCAR-3 ovarian) | GI50 (ACHN renal) | TGI (ACHN renal)
1 | O=C1/C(=C/c2ccc(Cl)cc2)CCC/C1=C\c1ccc(Cl)cc1 | 4.09 µM | > 100 µM | 3.39 µM | > 100 µM | 9.83 µM | > 100 µM | 5.18 µM | > 100 µM | > 100 µM | > 100 µM | 8.76 µM | > 100 µM | 2.7 µM | 6.37 µM | 10.8 µM | > 100 µM | 3.03 µM | 7.77 µM | 6.83 µM | > 100 µM
2 | O=C(Nc1cccc(-c2ccc(Cl)c(C(F)(F)F)c2)c1)C1CCN(Cc2cccc3cccnc23)CC1 | 1.79 µM | 3.21 µM | 1.37 µM | 2.79 µM | 1.84 µM | 3.41 µM | 1.88 µM | 3.89 µM | 1.65 µM | 3.08 µM | 1.61 µM | 3.6 µM | 1.21 µM | 3.33 µM | 1.25 µM | 2.52 µM | 1.72 µM | 3.17 µM | 1.76 µM | 3.14 µM
3 | CCC(=O)Nc1ccc(C)c(-c2ccc(C(=O)NCC3CC3)cc2)c1 | > 25 µM | > 25 µM | > 25 µM | > 25 µM | > 25 µM | > 25 µM | > 25 µM | > 25 µM | > 25 µM | > 25 µM | 14.6 µM | > 25 µM | > 25 µM | > 25 µM | > 25 µM | > 25 µM | > 25 µM | > 25 µM | > 25 µM | > 25 µM
4 | CC(C)=CCC/C(C)=C\CCC1(C)OC(=O)C2CC21 (centres undefined) | – | > 100 µM | 83.8 µM and 24.7 µM | > 100 µM | – | > 100 µM | 48.4 µM and 18.8 µM | > 100 µM and 42.6 µM | – | > 100 µM | – | > 100 µM | 72.8 µM and 34.1 µM | > 100 µM | – | > 100 µM | – | > 100 µM | > 100 µM and 25.1 µM | > 100 µM and 59.8 µM
5 | Cc1ccc(NC(=O)CSc2nnc3n(Cc4ccccc4)c(=O)c4c(C)c(C(N)=O)sc4n23)cc1 | 60.5 µM | > 100 µM | > 100 µM | > 100 µM | 3.44 µM | 58.8 µM | 27.2 µM | > 100 µM | > 100 µM | > 100 µM | 8.12 µM | > 100 µM | > 100 µM | > 100 µM | > 100 µM | > 100 µM | > 100 µM | > 100 µM | 19.9 µM | 51 µM
6 | CC(=[N-])N1CCC[C@@H](Nc2c3ccccc3nc3ccccc23)C1.[Cl][Pt].[NH-]CCC[NH-] | 0.0326 µM | > 100 µM | 2.37 µM | > 100 µM | 2.1 µM | 89.1 µM | 0.0328 µM | 0.2 µM | 1.49 µM | 4.51 µM | 0.0368 µM | > 100 µM | 0.44 µM | > 100 µM | 1.78 µM | 9.21 µM | 0.763 µM | > 41.6 µM | 0.159 µM | 2.47 µM
7 | Cc1cn2c(/C=N/N=C(N)N)c(-c3ccccn3)nc2s1 | 10.5 µM | 37.7 µM | 19.5 µM | 39.1 µM | 17.2 µM | 39.6 µM | 25.1 µM | > 58.2 µM | 21.8 µM | 44.4 µM | 7.59 µM | 18.2 µM | 19.4 µM | > 92.8 µM | 7.98 µM | > 20.5 µM | 17.3 µM | 34.2 µM | 21.8 µM | 51.7 µM
8 | CCOC(=O)c1cc(-c2ccccc2)[nH]c1N/N=C/c1ccc(Cl)cc1 | > 100 µM | > 100 µM | 49.3 µM | > 100 µM | > 100 µM | > 100 µM | > 100 µM | > 100 µM | > 100 µM | > 100 µM | 45.5 µM | > 100 µM | 37.3 µM | > 100 µM | 73.6 µM | > 100 µM | > 100 µM | > 100 µM | > 100 µM | > 100 µM
9 | Cc1ccc(NS(=O)(=O)c2cccc(C#N)c2)c2[nH]cc(C#N)c12 | 23.9 µM and 28.8 µM | > 100 µM | 6.14 µM and 14.1 µM | > 100 µM | 13.6 µM and 22 µM | > 85 µM | 22.5 µM and 25.5 µM | > 96.4 µM | 15.5 µM and 12.9 µM | 57.1 µM and 68.2 µM | 5.21 µM and 10.2 µM | > 86.4 µM | 33.5 µM and 12.5 µM | > 100 µM | 14.7 µM and 9.17 µM | 63.8 µM and 56.3 µM | 22 µM and 27.3 µM | 60.2 µM and > 94.7 µM | 12.6 µM and 16.3 µM | > 96.7 µM and 98.3 µM
